The target of the test is Autotaxin (ENPP2) (Mus musculus) (UniProt Q9R1E6). Put plainly: Inhibition of recombinant mouse N-terminal polyHis-tagged ATX-beta (Ser49 to Ile862 residues) expressed in HEK293 cells assessed as reduction in cleavage of LPC into LPA and choline using LPC(16:0) as substrate by Amplex red reagent based fluorescence assay.

One may read the IC50 as the concentration needed to halve the response being measured.

Regarding `O=C(NCc1ccccc1)[C@@H]1CCC(=O)N1Cc1ccccc1`, the IC50 is over 5 µM. The same measure for `O=C(NCc1ccc(OCc2cn(-c3ccccc3)nn2)cc1)[C@@H]1CCC(=O)N1Cc1ccccc1`: over 5 µM.

Regarding `O=C(NCc1ccc(OCc2ccc(-c3nn[nH]n3)cc2)cc1)[C@@H]1CCC(=O)N1Cc1ccc(F)cc1`, the IC50 was over 5 µM. In the case of `O=C(NCc1ccc(OCc2ccc(B(O)O)cc2)cc1)[C@@H]1CCC(=O)N1Cc1ccccc1`, the IC50 came to 0.035 µM. The same measure for `O=C(O)c1ccc(COc2ccc(CN3C(=O)CC[C@H]3C(=O)NCc3ccccc3)cc2)cc1`: over 5 µM; for `O=C1CC[C@@H](C(=O)NCc2ccc(OCc3ccc(C(=O)O)cc3)cc2)N1`: over 5 µM; for `O=C(O)c1ccc(COc2ccc(CNC(=O)[C@@H]3CCCN3Cc3ccccc3)cc2)cc1`: over 5 µM.

Consider `O=C(NCc1ccc(OCc2ccncc2)cc1)[C@@H]1CCC(=O)N1Cc1ccccc1`, for which the IC50 is over 5 µM. As for `NS(=O)(=O)c1ccc(COc2ccc(CNC(=O)[C@@H]3CCC(=O)N3Cc3ccc(C(F)(F)F)cc3)cc2)cc1`, the IC50 was over 5 µM. The same measure for `O=C(O)c1ccc(COc2ccc(CN3C(=O)CC[C@H]3Cn3ccnc3)cc2)cc1`: over 5 µM; for `O=C(O)c1ccc(COc2ccc(CN3CCC[C@H]3C(=O)NCc3ccccc3)cc2)cc1`: over 5 µM. Regarding `O=C(NCCc1c[nH]cn1)c1ccc(COc2ccc(CNC(=O)[C@@H]3CCC(=O)N3Cc3ccc(F)cc3)cc2)cc1`, the half-inhibitory concentration (IC50) is over 5 µM. The same measure for `O=C(O)c1ccc(COc2ccc(CNC(=O)[C@@H]3CCC(=O)N3Cc3ccc(Br)cc3)cc2)cc1`: over 5 µM; for `COC(=O)c1ccc(COc2ccc(CNC(=O)[C@@H]3CCC(=O)N3Cc3ccccc3)cc2)cc1`: over 5 µM. Regarding `O=C(NCc1ccccc1)[C@@H]1CCCN1Cc1ccc(OCc2ccc(-c3nn[nH]n3)cc2)cc1`, the IC50 is over 5 µM. Take `O=C(NO)c1ccc(COc2ccc(CNC(=O)[C@@H]3CCC(=O)N3Cc3ccccc3)cc2)cc1`: the IC50 turned out to be 0.7 µM. The same measure for `COC(=O)c1ccc(COc2ccc(CN3C(=O)CC[C@H]3Cn3ccnc3)cc2)cc1`: over 5 µM; for `O=C(NCCc1c[nH]cn1)c1ccc(COc2ccc(CNC(=O)[C@@H]3CCC(=O)N3Cc3ccccc3)cc2)cc1`: over 5 µM; for `O=C(NCc1ccc(OCc2ccc(-c3nn[nH]n3)cc2)cc1)[C@@H]1CCC(=O)N1Cc1ccccc1`: over 5 µM. On to `O=C(O)c1ccc(COc2ccc(CNC(=O)[C@@H]3CCC(=O)N3Cc3ccccc3)cc2)cc1`, for which the IC50 came out at 4.5 µM. The same measure for `O=C(O)c1ccc(COc2ccc(CNC(=O)[C@@H]3CCC(=O)N3Cc3ccc(F)cc3)cc2)cc1`: over 5 µM; for `O=C(NCc1ccccc1)[C@@H]1CCC(=O)N1Cc1ccc(OCc2ccc(-c3nn[nH]n3)cc2)cc1`: over 5 µM; for `O=C(O)c1ccc(COc2ccc(CNC(=O)[C@H]3CCCN3Cc3ccc(F)cc3)cc2)cc1`: over 5 µM. The same measure for `CC1(C)OB(c2ccc(COc3ccc(CNC(=O)[C@@H]4CCC(=O)N4Cc4ccccc4)cc3)cc2)OC1(C)C`: 0.05 µM; for `NS(=O)(=O)c1ccc(COc2ccc(CNC(=O)[C@@H]3CCC(=O)N3Cc3ccccc3)cc2)cc1`: over 5 µM. The same measure for `NS(=O)(=O)c1ccc(COc2ccc(CNC(=O)[C@@H]3CCC(=O)N3Cc3ccc(F)cc3)cc2)cc1`: over 5 µM; for `O=C(NCc1ccc(OCc2ccccc2)cc1)[C@@H]1CCC(=O)N1Cc1ccccc1`: over 5 µM. In the case of `O=C(NCc1ccc(OCc2ccc(-c3nn[nH]n3)cc2)cc1)[C@@H]1CCCN1Cc1ccccc1`, the IC50 was over 5 µM.

Consider `O=C(O)c1ccc(COc2ccc(CNC(=O)[C@@H]3CCCN3Cc3ccc(F)cc3)cc2)cc1`, for which the IC50 was found to be 0.8 µM. The same measure for `NS(=O)(=O)c1ccc(C(=O)NC[C@@H]2CCC(=O)N2Cc2ccccc2)cc1`: over 5 µM; for `O=C(O)c1ccc(COc2ccc(CNC(=O)[C@H]3CCC(=O)N3Cc3ccccc3)cc2)cc1`: over 5 µM. The same measure for `CC1(C)OB(c2ccc(COc3ccc(CNC(=O)[C@H]4CCC(=O)N4Cc4ccccc4)cc3)cc2)OC1(C)C`: 0.18 µM. Take `CC1(C)OB(c2ccc(COc3ccc(CNC(=O)[C@@H]4CCC(=O)N4Cc4ccc(F)cc4)cc3)cc2)OC1(C)C`: the half-maximal inhibitory concentration (IC50) is 0.12 µM. `O=C(O)c1ccc(COc2ccc(CNC(=O)[C@@H]3CCC(=O)N3Cc3ccc(C(F)(F)F)cc3)cc2)cc1`: the IC50 was over 5 µM.

Take `O=C(NCc1ccc(O)cc1)[C@@H]1CCC(=O)N1Cc1ccccc1`: the IC50 was over 5 µM.

The values above are taken from BindingDB's records for doi:10.1016/j.bmc.2019.115216 (National and Kapodistrian University of Athens, 2020).
